The values that follow come from patent US8710044B2, “Bicyclic azaheterocyclic carboxamides” (Merck Patent GmbH, priority 2010, dated 2014).

T1 sequence (P23443 whole entry T412E): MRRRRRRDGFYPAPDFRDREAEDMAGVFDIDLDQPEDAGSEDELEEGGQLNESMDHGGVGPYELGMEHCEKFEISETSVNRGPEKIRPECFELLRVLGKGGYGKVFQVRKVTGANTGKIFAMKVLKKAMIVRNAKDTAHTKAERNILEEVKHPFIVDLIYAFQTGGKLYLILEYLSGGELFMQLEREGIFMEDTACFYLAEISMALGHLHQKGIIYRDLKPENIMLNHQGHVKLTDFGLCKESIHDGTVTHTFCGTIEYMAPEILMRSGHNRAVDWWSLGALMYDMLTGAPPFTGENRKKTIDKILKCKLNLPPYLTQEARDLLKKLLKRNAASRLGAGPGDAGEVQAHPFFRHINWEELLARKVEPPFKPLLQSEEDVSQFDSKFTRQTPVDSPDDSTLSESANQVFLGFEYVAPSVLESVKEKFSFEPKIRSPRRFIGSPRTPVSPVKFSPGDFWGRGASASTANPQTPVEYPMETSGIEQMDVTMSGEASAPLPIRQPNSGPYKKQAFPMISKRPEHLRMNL

This assay concerns the target T1, P70S6K (T412E mutant, Millipore) (Homo sapiens, UniProt P23443, T412E).
T1 construct: purchased Millipore
Put plainly: P70S6K Enzyme Assay. It is filed as biochemical. Particulars: 3 nM enzyme, 24 μM ATP, 1 μM FITC-AHA-[…]-OH substrate peptide, 90 min at 25° C., Caliper Lab Chip 3000. The protocol:
P70S6K inhibitor compounds are diluted and plated in 96 well plates. […] The reaction is incubated for 90 min at 25° C., before the addition of 10 mM EDTA to stop the reaction. The proportion of substrate and product (phosphorylated) peptide is analysed on a Caliper Life Sciences Lab Chip 3000, using a pressure of −1.4 psi, and upstream and downstream voltages of −3000 and −700 respectively. Product peaks are resolved before substrate peaks on the resulting chromatograms.
`CNC[C@@H](Nc1nc(C)nc2c(C(N)=O)cccc12)c1ccc(F)cc1` [Example 16, 4-{[(1S)-1-(4-fluorophenyl)-2-(methylamino)ethyl]amino}-2-methylquinazoline-8-carboxamide]: half-maximal inhibition (IC50) required 2.8 nM.
For the compound `CNC[C@@H](Nc1nc(C)nc2c(C(N)=O)cccc12)c1cccc(F)c1` [Example 17, 4-{[(1S)-1-(3-fluorophenyl)-2-(methylamino)ethyl]amino}-2-methylquinazoline-8-carboxamide], half-maximal inhibition (IC50) required 139 nM.
Regarding `CNC[C@@H](Nc1nc(C(C)C)nc2c(C(N)=O)cccc12)c1ccc(Cl)cc1` [Example 18, 4-{[(1S)-1-(4-chlorophenyl)-2-(methylamino)ethyl]amino}-2-isopropylquinazoline-8-carboxamide], the IC50 came out at 23 nM.
`CNC[C@@H](Nc1nc(C)nc2c(C(N)=O)cccc12)c1ccc(Cl)cc1` [Example 19, 4-{[(1S)-1-(4-chlorophenyl)-2-(methylamino)ethyl]amino}-2-methylquinazoline-8-carboxamide] returned an IC50 of 0.83 nM.
On to `CCc1nc(N[C@H](CNC)c2cccc(F)c2)c2cccc(C(N)=O)c2n1` [Example 20, 2-Ethyl-4-{[(1S)-1-(3-fluorophenyl)-2-(methylamino)ethyl]amino}quinazoline-8-carboxamide], for which the IC50 came to 1.97 nM.
The figure for `CCc1nc(N[C@H](CNC)c2cccc(Cl)c2)c2cccc(C(N)=O)c2n1` [Example 21, 4-{[(1S)-1-(3-Chlorophenyl)-2-(methylamino)ethyl]amino}-2-ethylquinazoline-8-carboxamide] is 0.87 nM; for `CNC[C@@H](Nc1nc(C)nc2c(C(N)=O)cccc12)c1cccc(Cl)c1` [Example 22, 4-{[(1S)-1-(3-Chlorophenyl)-2-(methylamino)ethyl]amino}-2-methylquinazoline-8-carboxamide] it is 0.98 nM; for `CCc1nc(N[C@H](CNC)c2ccccc2)c2cccc(C(N)=O)c2n1` [Example 23, 2-Ethyl-4-{[(1S)-2-(methylamino)-1-phenylethyl]amino}quinazoline-8-carboxamide] it is 11 nM.
The result for `CCc1nc(N[C@H](CNC)c2ccc(Cl)cc2)c2cccc(C(N)=O)c2n1` [Example 24, 4-{[(1S)-1-(4-Chlorophenyl)-2-(methylamino)ethyl]amino}-2-ethylquinazoline-8-carboxamide] reads 1.4 nM.
The result for `CNC[C@@H](Nc1nc(C)nc2c(C(N)=O)cccc12)c1ccccc1` [Example 26, 2-Methyl-4-{[(1S)-2-(methylamino)-1-phenylethyl]amino}quinazoline-8-carboxamide] reads 6.46 nM.
In turn, `CNC[C@@H](Nc1nc(C(F)(F)F)nc2c(C(N)=O)cccc12)c1cccc(F)c1` [Example 27, 4-{[(1S)-1-(3-Fluorophenyl)-2-(methylamino)ethyl]amino}-2-(trifluoromethyl)-quinazoline-8-carboxamide] returned an IC50 of 4.3 nM. Compared with the last compound, the IC50 is about 1.5-fold lower.
Compound `CCc1nc(N[C@H](CN2CCC2)c2cccc(F)c2)c2cccc(C(N)=O)c2n1` [Example 28] gave an IC50 of 18.5 nM. This IC50 lies about 4.3-fold higher than the previous one.
In turn, `Cc1nc(N[C@H](CN2CCC2)c2ccccc2)c2cccc(C(N)=O)c2n1` [Example 29] gave an IC50 of 5.84 nM.
The result for `CCc1nc(N[C@H](CN2CCC2)c2ccccc2)c2cccc(C(N)=O)c2n1` [Example 30] reads 33.6 nM; that for `Cc1nc(N[C@H](CN2CCC2)c2ccc(Cl)cc2)c2cccc(C(N)=O)c2n1` [Example 31], 2.6 nM; that for `CCc1nc(N[C@H](CN2CCC2)c2ccc(Cl)cc2)c2cccc(C(N)=O)c2n1` [Example 32], 5.5 nM.
`Cc1nc(N[C@H](CN2CCC2)c2ccc(F)cc2)c2cccc(C(N)=O)c2n1` [Example 33] had an IC50 of 44 nM.
The result for `Cc1nc(N[C@H](CN2CCC2)c2cccc(F)c2)c2cccc(C(N)=O)c2n1` [Example 34] reads 7 nM; that for `CCc1nc(N[C@H](CN2CCC2)c2ccc(F)cc2)c2cccc(C(N)=O)c2n1` [Example 36], 30 nM; that for `CNC[C@@H](Nc1nc(C)nc2c(C(N)=O)cccc12)c1cc(F)ccc1OC` [Example 47, 4-[(S)-1-(5-Fluoro-2-methoxy-phenyl)-2-methylamino-ethylamino]-2-methyl-quinazoline-8-carboxylic acid amide], 12 nM.
`CNC[C@@H](Nc1nc(C)nc2c(C(N)=O)cccc12)c1ccc(C(F)(F)F)cc1` [Example 48, 2-Methyl-4-[(S)-2-methylamino-1-(4-trifluoromethyl-phenyl)-ethylamino]-quinazoline-8-carboxylic acid amide] came in with an IC50 of 1 nM.
As to `Cc1nc(N[C@@H](Cc2ccccc2)CN(C)C)c2cccc(C(N)=O)c2n1` [Example 49, 4-((S)-1-Benzyl-2-dimethylamino-ethylamino)-2-methyl-quinazoline-8-carboxylic acid amide], it took 452 nM to reach half-maximal inhibition (IC50). Compared with the last compound, the IC50 is about 450-fold higher.
As for `CNC[C@@H](Nc1nc(C)nc2c(C(N)=O)cccc12)c1ccc(F)cc1C(F)(F)F` [Example 50, 4-[(1S)-1-[4-fluoro-2-(trifluoromethyl)phenyl]-2-(methylamino)ethyl]amino-2-methylquinazoline-8-carboxamide], half-maximal inhibition (IC50) was put at 260 nM.
`NC[C@@H](Nc1nc(C(F)(F)F)nc2c(C(N)=O)cccc12)c1ccccc1` [Example 51, 4-((S)-2-Amino-1-phenyl-ethylamino)-2-trifluoromethyl-quinazoline-8-carboxylic acid amide] yielded a concentration for half-maximal inhibition (IC50) of 8 nM.
The figure for `CNC[C@@H](Nc1nc(C)nc2c(C(N)=O)cccc12)c1ccc(OC(F)(F)F)c(Cl)c1` [Example 52] is 1 nM.
Consider `CNC[C@@H](Nc1nc(C)nc2c(C(N)=O)cccc12)c1cc(F)ccc1F` [Example 53], for which 3 nM corresponded to half-maximal inhibition (IC50). This IC50 is about 3-fold higher than that of the compound before.
Consider `CNC[C@@H](Nc1nc(C)nc2c(C(N)=O)cccc12)c1ccc(F)cc1F` [Example 54], for which half-maximal inhibition (IC50) required 7 nM.
`CNC[C@@H](Nc1nc(C)nc2c(C(N)=O)cccc12)c1c(F)cccc1F` [Example 55] displayed an IC50 of 6 nM.
On to `CNC[C@@H](Nc1nc(C)nc2c(C(N)=O)cccc12)c1cc(F)c(F)cc1F` [Example 56, (S)-2-methyl-4-((2-(methylamino)-1-(2,4,5-trifluorophenyl)ethyl)amino)quinazoline-8-carboxamide], for which the IC50 is 1 nM.
`CCc1nc(N[C@H](CNC)c2cccc(F)c2Cl)c2cccc(C(N)=O)c2n1` [Example 60, (S)-4-((1-(2-chloro-3-fluorophenyl)-2-(methylamino)ethyl)amino)-2-ethylquinazoline-8-carboxamide] came in with an IC50 of 9 nM.
`CNC[C@@H](Nc1nc(C)nc2c(C(N)=O)cccc12)c1ccc(Cl)c(Cl)c1` [Example 61] returned an IC50 of 330 nM.
